According to article PMC3243694, “Integrated Dataset of Screening Hits against Multiple Neglected Disease Pathogens” (PLoS Neglected Tropical Diseases, 2011):

Legend:
[1] = system: Trypanosoma brucei brucei Squib-427 strain; test: Antitrypanosomal activity assay, T. brucei (resazurin); type: cell-based; conditions: T. brucei Squib 427 bloodstream forms, 72 h
Experimental: (§1) The compound set was tested against the following parasites: intra-erythrocytic forms in human red blood cells of P. falciparum K1 strain (malaria), [16], [32], [33], [35], bloodstream forms of T. brucei Squib 427 strain (human African trypanosomiasis, HAT), [31], [32], [34], intracellular amastigotes of T. cruzi Tulahuen CL2, beta- galactosidase strain (Chagas' Disease), [32]–[35], intracellular amastigotes of L. infantum MHOM/MA(BE)/67 (leishmaniasis), [32]–[36], larval and/or adult worms of S. mansoni Puerto Rican strain (schistosomiasis), [31], [37], microfilariae of B. malayi (lymphatic filariasis), [30] and microfilariae of O. ochengi or O. lienalis (onchocerciasis), [30]. It should be noted that the human pathogen for onchocerciasis is Onchocerca volvulus, but due to lack of a suitable in vitro assay or animal models for this pathogen, O. ochengi and lienalis, which are both animal pathogens, are used in the primary and secondary assays, [30].

[2] = system: Brugia malayi microfilariae; test: Anti-Brugia malayi microfilariae motility assay; type: cell-based; conditions: B. malayi microfilariae; 12.5 µM
Experimental: as §1
As result of logistics issues attributed to lost shipments of some compounds, only 6160 molecules of the 10,000 compound set were tested, at a uniform molarity, against B. malayi, including 6063 against microfilariae and 756 against adult worms (these sets overlap). […] Greatest priority was given to compounds with activity against adult worms, as no macrofilaricide is available for use in control campaigns and the activity of ivermectin as a microfilaricidal agent is unlikely to be bettered in a new series. Of the test set, 53 compounds met the activity criterion for microfilariae (100% motility reduction) and an additional 58 inhibited adult worm motility ≥75% at 10 µM. These were titrated to determine an IC50 value to support prioritization. Following cytotoxicity triage [structures # 1, 4, 6], eight compounds met the activity criterion for adult worms (i.e., 100% inhibition of adult worm motility), four of which were also active against microfilariae [structures # 14, 29, 30, 32]. […] Of these, the most interesting was TDR76699 [structure # 29]; this compound has very good activity against adult worms (IC50 = 0.1 µg/ml) and is also active against microfilariae (IC50 = 0.7 µg/ml). None of the other compounds tested against adult parasites had IC50 values ≤0.5 µg/ml, a threshold which would reduce concerns about specificity. However, a few series [structures # 31, 33, 34], appear interesting for future medicinal chemistry projects.

[3] = system: Onchocerca (lienalis or ochengi) microfilariae; test: Anti-Onchocerca microfilariae motility assay; type: cell-based, Onchocerca lienalis or O. ochengi
Experimental: as §1
4240 compound s were screened against O. ochengi at the University of Buea in Cameroon, while a subset of […] compounds was successfully screened in UK by the Northwick Park Institute for Medical Research against O. lienalis, at a uniform molarity. […] After removing molecules that were toxic to mammalian cells (IC50<5 µg/ml), 292 molecules remained for further evaluation. […] From the latter sub-set, […] distinct chemical series and one singleton [structure # 35] were active against both microfilaria and adults. One series [structures # 2, 3] was deemed not interesting due to lack of selectivity against mammalian cells. The remaining series is being transferred to ANDI for further progression as part of a new collaboration.

[4] = system: Plasmodium falciparum K1 strain; test: Anti-Plasmodium activity assay (Malstat); type: cell-based; conditions: P. falciparum K1, 72 h
Experimental: as §1

[5] = system: MRC-5 cell line (diploid human embryonic lung fibroblast); test: Cytotoxicity on MRC-5 cells; type: cell-based
Excerpt: [table] An important part of the screen is the evaluation of all compounds for cytotoxicity using the diploid human embryonic lung fibroblast MRC-5 cell line (Figure 2). Further evaluation of cytotoxicity also takes advantage of the assays for intracellular protozoan parasites, as in the case of L. infantum and T. cruzi, which include murine peritoneal macrophage host cells and MRC-5SV2 human lung fibroblast cells, respectively, in the culture system.

[6] = system: Schistosoma mansoni adult worms; test: Anti-Schistosoma activity assay (adult worm motility); type: cell-based; conditions: S. mansoni adult worms; 12.5 µM (method: 10 µg/ml or 12.5 µM)
Experimental: as §1
A subset of 9478 of the 10,000 compound collection was tested against the Puerto Rican strain of S. mansoni. 6144 of these were tested in a primary larval assay followed by the ex-vivo adult secondary screen. The remainder was screened only in the adult assay. […] The 65 compounds were sorted by chemical attractiveness, potency against adult schistosomes in culture, selectivity against other parasites, and toxicity to mammalian cells in culture. Based on this analysis, 5 series encompassing 13 compounds were chosen for advancement through the African Network for Drug and Diagnostic Innovation (ANDI) and other PDPs. Representative structures [structures # 13, 27, 28] are shown (Table S1). These compounds are unburdened by obvious toxic moieties, have acceptable compliance with the Lipinski rules, are selectively active against schistosomes and are not overtly toxic to mammalian cells. It has unfortunately not been possible to titrate all of these hits in culture; of about 50% for which such data are available, none has an IC50<2 µg/ml (which is the initial potency criteria).

[7] = system: Trypanosoma cruzi, Tulahuen CL2 strain; test: Antitrypanosomal activity assay, T. cruzi in MRC-5 cells; type: cell-based; conditions: T. cruzi Tulahuen CL2 in MRC-5 cells, 7 days
Experimental: as §1
171 of the 744 actives passed the initial criterion of IC50<1 µg/ml for T. cruzi Tulahuen CL2, beta galactosidase strain maintained on MRC-5SV2 cells in MEM medium (MRC-5 cell/parasite inoculum: 4.10^3 cells/well+4.10^4 parasites/well), supplemented with […] L-glutamine, 16.5 mM NaHCO3 and 5% heat inactivated fetal calf serum. […] Of these, 109 were eliminated [structures #1–6] for poor selectivity versus mammalian cells (SI<50) and an additional 11 due to undesirable chemical attributes. The remaining 51 compounds were sorted into 10 series (45 compounds) and 6 singletons [structures # 21, 22]. Two of these series with excellent potency against T. cruzi, limited activity against other protozoa and SI values >50 (not shown), have been transferred to DNDi for further evaluation.

Row | SMILES | HAT IC50 [1] [µg/mL] | LF/MF % Motility Reduction at 12.5µM [2] [%] | ONC/MF % Motility Reduction at 12.5µM [3] [%] | MAL IC50 [4] [µg/mL] | CYT IC50 [5] [µg/mL] | SCH % Motility Reduction at 12.5µM [6] [%] | CHA IC50 [7] [µg/mL]
1 | CSc1cccc(C(=O)N(Cc2cccnc2)c2nc3ccc(S(C)(=O)=O)cc3s2)c1 [TDR84433] | >14.09 | 0 | 0 | 8.28 | >14.09 | 0 | 0.38
2 | O=C(c1ccccc1)N1CCN(c2ccc(Nc3ccccn3)nn2)CC1 [TDR86082] | >10.8 | 0 | 0 | >10.8 | >10.8 | 0 | >10.8
3 | O=S(=O)(c1cccnc1)N1CCN(c2ccc(-c3cccs3)nn2)CC1 [TDR85115] | >11.6 | 50 | 0 | >11.6 | >11.6 | 0 | >11.6
4 | COc1ccc(N2CCCS2(=O)=O)cc1NC(=O)c1cc(Cl)ccc1OC [TDR79456] | 4.3 | – | 13.3 | >12.3 | >12.3 | 4 | 5.0
5 | C=CCN(CC=C)S(=O)(=O)c1ccc(C(=O)Nc2nc3ccc(C(C)C)cc3s2)cc1 [TDR78794] | >10.99 | – | 0 | >10.99 | >10.99 | 100 | 4.48
6 | O=C(Cc1csc(NC(=O)C2CCC(=O)N2)n1)NCc1ccccn1 (stereo not shown) [TDR84826] | >10.78 | 20 | 50 | >10.78 | >10.78 | 100 | >10.78
7 | CS(=O)(=O)c1ccc2nc(N(Cc3cccnc3)C(=O)c3ccc4ccccc4c3)sc2c1 [TDR84431] | >14.21 | 0 | 0 | >14.21 | >14.21 | 0 | 0.23
8 | O=C(CN1CCC(C(=O)Nc2ccc(Oc3ccccc3)cc2)CC1)Nc1ccc(F)cc1 [TDR80731] | >13.43 | – | 0 | >13.43 | >13.43 | 0 | >13.43
9 | O=C(CSc1ccc2nnc(-c3ccccn3)n2n1)NCC1CCCO1 (stereo not shown) [TDR78834] | 3.3 | – | 0 | 3.15 | >12.1 | 0 | 5.2
10 | O=S(=O)(c1cccc(F)c1)N1CCN(c2ccc(Nc3cccnc3)nn2)CC1 [TDR86129] | >12.43 | 0 | 0 | 5.44 | 0.94 | 0 | >12.43
11 | O=C(Cc1ccc(F)cc1)Nc1nc(-c2ccccn2)cs1 [TDR82963] | 0.31 | 0 | 23 | 2.97 | >9.4 | 0 | 0.33
12 | Cc1ccc(N2CCn3c2nnc(C(=O)NCCC2=CCCCC2)c3=O)cc1 [TDR81281] | >11.38 | – | 0 | 0.15 | >11.38 | 0 | >11.38
13 | CSc1ccc2nc(N(Cc3cccnc3)C(=O)c3ccc(C(C)(C)C)cc3)sc2c1 [TDR84420] | >13.43 | 0 | 25 | 0.15 | 7.16 | 0 | 0.56
14 | Cc1c(C(=O)N2CCC(C)CC2)sc2nc(-c3ccc(F)cc3)cn12 [TDR77657] | 0.42 | 0 | 0 | >10.72 | >10.72 | 0 | >10.72
15 | COc1ccc(SCC(=O)Nc2nc(-c3ccccn3)cs2)cc1 [TDR83845] | 0.35 | 0 | 86 | >10.72 | >10.72 | 0 | 0.36
16 | O=C(Nc1nc(-c2ccncc2)cs1)C1CCCN(S(=O)(=O)c2ccc(Cl)s2)C1 (stereo not shown) [TDR80165] | 4.5 | – | 50 | 6.68 | >14.07 | 0 | 0.24
17 | CCOc1ccc2nc(N(Cc3cccnc3)C(=O)c3ccc(Cl)s3)sc2c1 [TDR81636] | 3.52 | 0 | 11 | 3.55 | >12.2 | 0 | 0.66
18 | Cc1ccc(C(=O)Nc2nnc(Cc3cccs3)o2)cc1C [TDR85275] | 0.38 | 50 | 0 | – | – | 25 | 3.01
19 | O=S(=O)(NCC(c1cccnc1)N1CCN(Cc2ccccc2)CC1)c1ccc(Cl)cc1 (stereo not shown) [TDR78023] | >14.13 | – | 0 | 2.18 | >14.13 | 0 | 0.63
